Test results: ChEMBL document CHEMBL3885881, “DrugMatrix”

Organism: Rattus norvegicus
Assay: DrugMatrix - Regimen: Daily Repeat
Type: toxicity, organism-based, Sprague-Dawley
Parameters: regimen Daily Repeat, gender Male, age 6-8 weeks
Details: in vivo, po, 1500 mg/kg, route oral GAVAGE, dose level High, vehicle .5 % CMC; for ABSOLUTE BASOPHIL / ABSOLUTE EOSINOPHIL / ABSOLUTE LYMPHOCYTE / ABSOLUTE MONOCYTE / ABSOLUTE SEGMENTED NEUTROPHIL / BASOPHIL / EOSINOPHIL / ERYTHROCYTE COUNT / HEMATOCRIT / HEMOGLOBIN / LEUKOCYTE COUNT / LYMPHOCYTE / MEAN CORPUSCULAR HEMOGLOBIN / MEAN CORPUSCULAR HEMOGLOBIN CONCENTRATION / MEAN CORPUSCULAR VOLUME / MONOCYTE / NEUTROPHIL / NUCLEATED RED BLOOD CELLS / PLATELET COUNT: tissue Blood; for ALANINE AMINOTRANSFERASE / ALBUMIN / ALKALINE PHOSPHATASE / ASPARTATE AMINOTRANSFERASE / BLOOD UREA NITROGEN / CARBON DIOXIDE / CHLORIDE / CHOLESTEROL / CREATINE PHOSPHOKINASE / CREATININE / GLUCOSE / LACTATE DEHYDROGENASE / LIPASE / PHOSPHORUS / POTASSIUM / SODIUM / TOTAL BILIRUBIN / TOTAL PROTEIN / URIC ACID: tissue Plasma

COC(=O)Nc1nc2ccc([S+]([O-])c3ccccc3)cc2[nH]1 (stereo unspecified) [OXFENDAZOLE]
ABSOLUTE BASOPHIL (72 h, time 3 day): 0 CELLS/uL
ABSOLUTE EOSINOPHIL (72 h, time 3 day): 0 CELLS/uL
ABSOLUTE LYMPHOCYTE (72 h, time 3 day): 9253.67 CELLS/uL
ABSOLUTE MONOCYTE (72 h, time 3 day): 174.67 CELLS/uL
ABSOLUTE SEGMENTED NEUTROPHIL (72 h, time 3 day): 671.67 CELLS/uL
BASOPHIL (72 h, time 3 day): 0%
EOSINOPHIL (72 h, time 3 day): 0%
ERYTHROCYTE COUNT (72 h, time 3 day): 5.79 x10E6/uL
HEMATOCRIT (72 h, time 3 day): 34.2%
HEMOGLOBIN (72 h, time 3 day): 13.37 G/DL
LEUKOCYTE COUNT (72 h, time 3 day): 10.1 x10E3/uL
LYMPHOCYTE (72 h, time 3 day): 91.67%
MEAN CORPUSCULAR HEMOGLOBIN (72 h, time 3 day): 23.07 pg
MEAN CORPUSCULAR HEMOGLOBIN CONCENTRATION (72 h, time 3 day): 39.1 G/DL
MEAN CORPUSCULAR VOLUME (72 h, time 3 day): 59.03 fL
MONOCYTE (72 h, time 3 day): 1.67%
NEUTROPHIL (72 h, time 3 day): 6.67%
NUCLEATED RED BLOOD CELLS (72 h, time 3 day): 0 /100WBC
PLATELET COUNT (72 h, time 3 day): 1138.67 x10E3/uL
ALANINE AMINOTRANSFERASE (72 h, time 3 day): 42.33 u/L
ALBUMIN (72 h, time 3 day): 4 G/DL
ALKALINE PHOSPHATASE (72 h, time 3 day): 328.67 u/L
ASPARTATE AMINOTRANSFERASE (72 h, time 3 day): 70.33 u/L
BLOOD UREA NITROGEN (72 h, time 3 day): 15.33 mg/dL
CARBON DIOXIDE (72 h, time 3 day): 27.33 mmol/L
CHLORIDE (72 h, time 3 day): 100.33 MEQ/L
CHOLESTEROL (72 h, time 3 day): 67.67 mg/dL
CREATINE PHOSPHOKINASE (72 h, time 3 day): 217.33 u/L
CREATININE (72 h, time 3 day): 0.17 mg/dL
GLUCOSE (72 h, time 3 day): 160.33 mg/dL
LACTATE DEHYDROGENASE (72 h, time 3 day): 90 u/L
LIPASE (72 h, time 3 day): 9.67 u/L
PHOSPHORUS (72 h, time 3 day): 11.6 mg/dL
POTASSIUM (72 h, time 3 day): 6.25 MEQ/L
SODIUM (72 h, time 3 day): 142.17 MEQ/L
TOTAL BILIRUBIN (72 h, time 3 day): 0.1 mg/dL
TOTAL PROTEIN (72 h, time 3 day): 5.43 G/DL
URIC ACID (72 h, time 3 day): 1.83 mg/dL
ABSOLUTE BASOPHIL (120 h, time 5 day): 0 CELLS/uL
ABSOLUTE EOSINOPHIL (120 h, time 5 day): 0 CELLS/uL
ABSOLUTE LYMPHOCYTE (120 h, time 5 day): 9784.67 CELLS/uL
ABSOLUTE MONOCYTE (120 h, time 5 day): 35.33 CELLS/uL
ABSOLUTE SEGMENTED NEUTROPHIL (120 h, time 5 day): 380 CELLS/uL
BASOPHIL (120 h, time 5 day): 0%
EOSINOPHIL (120 h, time 5 day): 0%
ERYTHROCYTE COUNT (120 h, time 5 day): 5.39 x10E6/uL
HEMATOCRIT (120 h, time 5 day): 32.9%
HEMOGLOBIN (120 h, time 5 day): 13.2 G/DL
LEUKOCYTE COUNT (120 h, time 5 day): 10.2 x10E3/uL
LYMPHOCYTE (120 h, time 5 day): 95.67%
MEAN CORPUSCULAR HEMOGLOBIN (120 h, time 5 day): 24.53 pg
MEAN CORPUSCULAR HEMOGLOBIN CONCENTRATION (120 h, time 5 day): 40.13 G/DL
MEAN CORPUSCULAR VOLUME (120 h, time 5 day): 61.07 fL
MONOCYTE (120 h, time 5 day): 0.33%
NEUTROPHIL (120 h, time 5 day): 4%
NUCLEATED RED BLOOD CELLS (120 h, time 5 day): 0 /100WBC
PLATELET COUNT (120 h, time 5 day): 1442.33 x10E3/uL
ALANINE AMINOTRANSFERASE (120 h, time 5 day): 41 u/L
ALBUMIN (120 h, time 5 day): 4.17 G/DL
ALKALINE PHOSPHATASE (120 h, time 5 day): 331.33 u/L
ASPARTATE AMINOTRANSFERASE (120 h, time 5 day): 79.67 u/L
BLOOD UREA NITROGEN (120 h, time 5 day): 15.33 mg/dL
CARBON DIOXIDE (120 h, time 5 day): 27.67 mmol/L
CHLORIDE (120 h, time 5 day): 101.67 MEQ/L
CHOLESTEROL (120 h, time 5 day): 69.67 mg/dL
CREATINE PHOSPHOKINASE (120 h, time 5 day): 228 u/L
CREATININE (120 h, time 5 day): 0.16 mg/dL
GLUCOSE (120 h, time 5 day): 143 mg/dL
LACTATE DEHYDROGENASE (120 h, time 5 day): 165 u/L
LIPASE (120 h, time 5 day): 9.33 u/L
PHOSPHORUS (120 h, time 5 day): 13.13 mg/dL
POTASSIUM (120 h, time 5 day): 6.91 MEQ/L
SODIUM (120 h, time 5 day): 146.13 MEQ/L
TOTAL BILIRUBIN (120 h, time 5 day): 0.13 mg/dL
TOTAL PROTEIN (120 h, time 5 day): 5.77 G/DL
URIC ACID (120 h, time 5 day): 1.7 mg/dL
